Test [1] relates to K562 cells. As to the kind of experiment: Cell viability in cell lines with constitutive activation of STAT5 (Almar Blue). The test is classed as cell-based. As for the experimental part: (§1) To determine whether STAT5 inhbitors could be cytotoxic in cell lines that have constitutive activation of STAT5, the cell lines K562 and MV-4-11 were cultured at concentration 1×10^5, to insure that the cells are at the exponential stage of growth, and treated with the different synthesized molecules at concentrations of 10, 20 and 40 μM. Viability were determined using Almar Blue (Invitrogen) in 96-well plate over 3 consecutive days. Fluorescence was quantified using Spectra Max M5 (Molecular Devices).

Test [2] has as its system MV-4-11 cells. Described as above. The test is classed as cell-based. As for the experimental part:
as §1

In test [3] the test system is MDA-468 cells. Put plainly: Cell viability, MTS assay. The test is classed as cell-based. The note with it: Homo sapiens, MDA-468, 72 hours. As for the experimental part:
(§2) To further test activity of these molecules, a whole-cell study involving cancer lines with known abherrant STAT3 expression was conducted. These human cell lines, including prostate cancer (DU145), breast cancer (MDA468), and promyelocytic leukemia (HL-60) were treated with the peptidomimetics and incubated for 72 hours. Disruption of cell viability was measured by MTS assay and IC50 values for the potential inhibitors was determined. OriginPro 8 (Northampton, Mass.) was used to evaluate EC50 using the dose response curve defined as follows:
(§3) [formula] where y is the fraction of death, x is the log of drug concentration. A2 is the top asymptote, A1 is the bottom asymptote, logx0 is the center of the curve, and p is the hill slope.

In test [4] the test system is DU-145 cells. Put plainly: Cell viability, MTS assay. The note with it: Homo sapiens, DU-145, 72 hours. It counts as cell-based. The method, then: as §2, §3
A general note: Tetrazolium dyes change colour on reduction, which living cells bring about.

Test [5] concerns HL60 cells. As to the kind of experiment: Cell viability, MTS assay. The test is classed as cell-based. The note with it: Homo sapiens, HL-60, HL60, 72 hours. The method, then:
as §2, §3

Test [6] has as its system OCI-AMI.2 cells. As to the kind of experiment: Cell viability, MTS assay. It counts as cell-based.
Test [7] deals with STAT3 (Homo sapiens (Human), UniProt P40763). Put plainly: Fluorescence polarization assay, inhibition of binding to STAT3. The note with it: inhibition of binding to STAT3 in a fluorescence polarization assay; read-out: Ki (FP). As for the experimental part: The fluorescent polarization experiments were performed on an Infinite M1000 (Tecan, Crailsheim, Germany). All assays were performed in the same buffer conditions of 50 mM NaCl, 10 mM Hepes, pH 7.5, 1 mM EDTA, and 2 mM dithiothreitol. Fluorescent-labelled peptides were kept at a final concentration of 10nM in buffered solution. […] of labelled peptides were added to […] of a 300 nM STAT3 protein solution (provided by SignalChem in 50 mM Tris-HCl, pH 7.5, 150 mM NaCl, 0.25 mM DTT, 0.1 mM PMSF, 25% glycerol and stored at −80° C.). Inhibitory molecules were dissolved in pure DMSO and diluted using buffer solution to produce four final concentrations ([…]). 7.5 μL of the inhibitory molecule solution was mixed with the STAT3 protein and labelled peptide solution in black 384-flat well microplates (Coming), and incubated for 15-30 minutes. The M1000 performed a shaking cycle and then read the plates. IC50′s were derived from the output using the curve-fitting software OriginPro 8 (Northampton, MA). The FP data was modelled by the following equation:
[formula] where X was the concentration of inhibitor and ρwas the corresponding fluorescence at that concentration. The free parameter was half the maximal inhibitory concentration (IC50) and the limiting values was the maximal measured fluorescence polarization (ρ1) and the minimal fluorescence polarization (ρ2). Origin curve fitting software utilizes the Levenberg-Marquardt algorithm and reduced chi-square criterion for convergence. The inhibitor dissociation constant, Ki, was calculated from the derived IC50 values, as per the following formula: […]
Further details of the fluorescence polarization assay are as described previously (Zhang X, et al. (2010) A novel small-molecule disrupts Stat3 SH2domainphosphotyrosine interactions and Stat3-dependent tumor processes. Biochem Pharmacol 79: 1398-1409).
On the technique in general: Polarisation of emitted light reports the rotation of a fluorescent probe.

Test [8] deals with STAT3 (Mus musculus, UniProt P42227). Put plainly: Stat3 DNA-binding activity, electrophoretic mobility shift assay (EMSA) with nuclear extracts. The test is classed as biochemical. The note with it: inhibition of STAT3 activity in an EMSA. The method, then:
Nuclear extract preparations and electrophoretic mobility shift assay (EMSA) were carried out as previously described (Yang J, et al. (2005) Cancer Res. 65:939-947). […] For direct effect of a test compound on Stat3 DNA-binding activity, nuclear extracts were pre-incubated with the agent for 30 min at room temperature prior to incubation with the radiolabeled probe for 30 min at 30° C. before subjecting to EMSA analysis. […] Cytosolic extract preparation from mammalian cells and luciferase assay previously described (Zhang X, et al. (2010) Biochem Pharmacol 79:1398-1409; Turkson J, et al. (1999) Mol. Cell. Biol. 19:7519-7528; Turkson J, et al. (1998) Mol. Cell. Biol. 18:2545-2552).)
A general note: In EMSA bound probe runs differently from free probe, usually more slowly.

Like-named read-outs stand apart in the source and are kept apart here. Bounds are passed on as bounds.

Chain of STAT3 (Homo sapiens (Human), UniProt P40763) (P40763 whole entry): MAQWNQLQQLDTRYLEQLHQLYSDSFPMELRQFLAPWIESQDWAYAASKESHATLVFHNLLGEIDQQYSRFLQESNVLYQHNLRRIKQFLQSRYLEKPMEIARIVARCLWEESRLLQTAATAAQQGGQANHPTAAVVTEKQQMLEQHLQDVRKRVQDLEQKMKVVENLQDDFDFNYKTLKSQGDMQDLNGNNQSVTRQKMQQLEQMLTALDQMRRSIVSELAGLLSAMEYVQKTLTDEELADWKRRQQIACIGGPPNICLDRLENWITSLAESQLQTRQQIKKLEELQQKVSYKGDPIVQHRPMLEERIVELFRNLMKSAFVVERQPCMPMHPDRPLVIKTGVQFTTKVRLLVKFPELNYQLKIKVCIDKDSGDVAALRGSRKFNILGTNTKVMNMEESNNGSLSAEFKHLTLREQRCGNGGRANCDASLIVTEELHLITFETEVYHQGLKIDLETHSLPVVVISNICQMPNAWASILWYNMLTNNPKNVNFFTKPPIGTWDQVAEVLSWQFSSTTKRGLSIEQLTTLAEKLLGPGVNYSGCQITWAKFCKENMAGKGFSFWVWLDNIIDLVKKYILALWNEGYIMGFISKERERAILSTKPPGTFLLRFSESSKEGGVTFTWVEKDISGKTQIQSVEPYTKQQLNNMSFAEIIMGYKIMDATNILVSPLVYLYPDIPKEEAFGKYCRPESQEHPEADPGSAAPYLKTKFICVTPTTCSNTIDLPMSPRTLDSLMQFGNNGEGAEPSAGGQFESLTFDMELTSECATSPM
Chain of STAT3 (Mus musculus, UniProt P42227) (P42227 2-770 limits assumed): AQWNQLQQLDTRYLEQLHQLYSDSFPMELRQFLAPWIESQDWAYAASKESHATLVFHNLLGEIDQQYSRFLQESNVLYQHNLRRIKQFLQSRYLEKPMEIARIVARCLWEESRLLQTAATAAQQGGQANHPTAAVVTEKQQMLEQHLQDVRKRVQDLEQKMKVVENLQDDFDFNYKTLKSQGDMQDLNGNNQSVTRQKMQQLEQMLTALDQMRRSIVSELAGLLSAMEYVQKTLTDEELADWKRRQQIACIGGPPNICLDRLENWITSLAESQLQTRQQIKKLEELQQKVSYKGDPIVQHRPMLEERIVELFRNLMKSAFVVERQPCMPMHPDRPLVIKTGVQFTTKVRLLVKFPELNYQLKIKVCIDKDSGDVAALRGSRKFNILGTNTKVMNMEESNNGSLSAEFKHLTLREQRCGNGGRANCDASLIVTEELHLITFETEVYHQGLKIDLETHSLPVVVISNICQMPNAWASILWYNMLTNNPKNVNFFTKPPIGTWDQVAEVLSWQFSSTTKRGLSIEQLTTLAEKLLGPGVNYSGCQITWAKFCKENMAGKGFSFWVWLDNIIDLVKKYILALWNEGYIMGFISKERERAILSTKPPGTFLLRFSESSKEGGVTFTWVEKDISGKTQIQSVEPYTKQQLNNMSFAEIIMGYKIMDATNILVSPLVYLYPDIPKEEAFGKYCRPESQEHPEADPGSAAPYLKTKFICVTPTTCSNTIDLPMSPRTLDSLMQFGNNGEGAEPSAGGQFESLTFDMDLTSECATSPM

In general, IC50 refers to the midpoint of a concentration-inhibition curve. Regarding `CN(CC(=O)N(Cc1ccc(C2CCCCC2)cc1)c1ccc(C(=O)O)c(O)c1)S(=O)(=O)c1ccc(-c2ccccc2)cc1` [Compound 45c, 4-(N-(4-cyclohexylbenzyl)-2-(N-methylbiphenyl-4-ylsulfonamido)acetamido)-2-hydroxy-benzoic acid], the IC50 amounted to 42 ± 16 µM in test [1] (Homo sapiens); 17 ± 1 µM in test [2] (Homo sapiens, MV4-11); 47.4 ± 6.2 µM in test [3]; 80 ± 31.6 µM in test [4]; 74.8 ± 28.2 µM in test [5]; 95.4 ± 33.7 µM in test [6].
With `Cc1ccc(S(=O)(=O)N(CC(=O)N(Cc2ccccc2)c2ccc(C(=O)O)c(O)c2)C(=O)OC(C)(C)C)cc1` [SF-1-088], the IC50 in test [1] was 77 ± 5 µM; in test [2], > 80 µM.
Regarding `Cc1cc(C)c(S(=O)(=O)N(C)CC(=O)N(Cc2ccc(C3CCCCC3)cc2)c2ccc(C(=O)O)c(O)c2)c(C)c1` [Compound 45b, 4-(N-(4-cyclohexylbenzyl)-2-(N,2,4,6-tetramethylphenylsulfonamido)acetamido)-2-hydroxy-benzoic acid], the IC50 is 80 ± 18 µM in test [1] (Homo sapiens); > 80 µM in test [2] (Homo sapiens, MV4-11); 22.6 ± 8.3 µM in test [3]; 44.5 ± 16 µM in test [4]; 40.4 ± 20.2 µM in test [5]; 65.4 ± 13 µM in test [6].
In general, Ki refers to a measure of affinity in units of concentration, obtained from inhibition or displacement. On to `CN(CC(=O)N(Cc1ccc(C2CCCCC2)cc1)c1ccc(C(=O)O)c(O)c1)S(=O)(=O)c1cccc2cccnc12` [Compound 45F, 4-(N-(4-cyclohexylbenzyl)-2-(N-methylquinoline-8-sulfonamido)acetamido)-2-hydroxy-benzoic acid], for which the inhibitory constant (Ki) in test [7] turned out to be 41 ± 0.4 µM. The IC50 was 24.6 ± 3.4 µM in test [8]; > 100 µM in test [3]; > 100 µM in test [4]; > 100 µM in test [5]; > 100 µM in test [6].
Turning to `COC(=O)c1cccc(-c2ccc(-c3ccc(CN(C(=O)CN(C)S(=O)(=O)c4ccc(C)cc4)c4ccc(C(=O)O)c(O)c4)cc3)cc2)c1` [Compound 27na], the IC50 in test [1] (Homo sapiens) is 24 ± 3 µM; in test [2] (Homo sapiens, MV4-11) it was 24 ± 2 µM; in test [3], 29 ± 2.3 µM; in test [4] it was 81.5 ± 8 µM; in test [5] it was 33.2 ± 9.2 µM; in test [6], 35.1 ± 19.4 µM.
For the compound `Cc1ccc(S(=O)(=O)N(CC(=O)N(Cc2ccc(C3CCCCC3)cc2)c2ccc(C(=O)O)c(O)c2)C(=O)OC(C)(C)C)cc1` [SF-1-087], the half-maximal inhibitory concentration (IC50) was > 80 µM in test [1] and 51 ± 7 µM in test [2].

Values taken from patent US10196373B2, “Substituted 2-hydroxy-4-(2-(phenylsulfonamido)acetamido)benzoic acid analogs as inhibitors of STAT protein” (University of Central Florida Research Foundation, Inc., priority 2010, dated 2019).
